Consider 15 compounds from patent US12428394B2, “2,4-disubstituted pyrimidine derivative, preparation method therefor and use thereof” (CHENGDU ZENITAR BIOMEDICAL TECHNOLOGY CO., LTD., priority 2019, dated 2025).

In assay [1] the test system is MV4-11 cells (FLT3-ITD+/+). The experiment in a line: Inhibition of cell proliferation by MTT experiment, MV4-11. Format: cell-based, human. The note with it: Homo sapiens, MV4-11; MTT, 72 h; read-out: IC50 value on cell proliferation inhibition, MV4-11 FLT3-ITD+/+. An excerpt:
(§1) MV4-11, MOLM-13 and SET-2 were used to determine the influence of the test compound of the present invention on the activity of cancer cells. MV4-11 and MOLM-13 were human leukemia cell lines from American Type Culture Collection (ATCC), expressing FLT3 receptor and containing FLT3-ITD mutation; and SET-2 was a primary thrombocythemia cell purchased from Chengdu Bowerston Biotechnology Co., Ltd., China, continuously expressing JAK2 receptor and containing the mutation of V617F.
(§2) MV4-11, MOLM-13 and SET-2 cells were filled in a 96-well petri dish with 100 μL IMDM as the medium, containing 10% fetal bovine serum (100 mL/bottle, purchased from Grassland Lvye Bio-Engineering Materials Co., Ltd. and cryopreserved at −20° C.), and with 10,000-15,000 cells in each well. […] In each group, 3-5 replicate wells were set and incubated in 5% CO2 at 37° C. for 72 h. At the endpoint, 20 μL MTT (5 mg/mL) was added to each well, and the cells were incubated for another 1-3 h.
(§3) After the inhibition rate of each concentration of compound on cell proliferation activity was calculated, the dose-response curve and IC50 value were fitted by Graphpad prism software according to the compound treatment concentrations and corresponding inhibition rates.

Assay [2] has as its system MOLM-13 cells (FLT3-ITD-/+). Description: Inhibition of cell proliferation by MTT experiment, MOLM-13. Format: cell-based, human. Conditions: Homo sapiens, MOLM-13; MTT, 72 h; read-out: IC50 value on cell proliferation inhibition, MOLM-13 FLT3-ITD-/+.
Description: as §1, §2, §3

The next assay concerns SET-2 cells (JAK2 V617F). The experiment in a line: Inhibition of cell proliferation by MTT experiment, SET-2. Conditions: Homo sapiens, SET-2; MTT, 72 h; read-out: IC50 value on cell proliferation inhibition, SET-2 (V617F). The class given is cell-based.
Description: as §1, §2, §3

A further assay deals with T1, FLT3 (Homo sapiens, UniProt P36888).
T1 construct: purchased Eurofins
T1 sequence (P36888 27-993): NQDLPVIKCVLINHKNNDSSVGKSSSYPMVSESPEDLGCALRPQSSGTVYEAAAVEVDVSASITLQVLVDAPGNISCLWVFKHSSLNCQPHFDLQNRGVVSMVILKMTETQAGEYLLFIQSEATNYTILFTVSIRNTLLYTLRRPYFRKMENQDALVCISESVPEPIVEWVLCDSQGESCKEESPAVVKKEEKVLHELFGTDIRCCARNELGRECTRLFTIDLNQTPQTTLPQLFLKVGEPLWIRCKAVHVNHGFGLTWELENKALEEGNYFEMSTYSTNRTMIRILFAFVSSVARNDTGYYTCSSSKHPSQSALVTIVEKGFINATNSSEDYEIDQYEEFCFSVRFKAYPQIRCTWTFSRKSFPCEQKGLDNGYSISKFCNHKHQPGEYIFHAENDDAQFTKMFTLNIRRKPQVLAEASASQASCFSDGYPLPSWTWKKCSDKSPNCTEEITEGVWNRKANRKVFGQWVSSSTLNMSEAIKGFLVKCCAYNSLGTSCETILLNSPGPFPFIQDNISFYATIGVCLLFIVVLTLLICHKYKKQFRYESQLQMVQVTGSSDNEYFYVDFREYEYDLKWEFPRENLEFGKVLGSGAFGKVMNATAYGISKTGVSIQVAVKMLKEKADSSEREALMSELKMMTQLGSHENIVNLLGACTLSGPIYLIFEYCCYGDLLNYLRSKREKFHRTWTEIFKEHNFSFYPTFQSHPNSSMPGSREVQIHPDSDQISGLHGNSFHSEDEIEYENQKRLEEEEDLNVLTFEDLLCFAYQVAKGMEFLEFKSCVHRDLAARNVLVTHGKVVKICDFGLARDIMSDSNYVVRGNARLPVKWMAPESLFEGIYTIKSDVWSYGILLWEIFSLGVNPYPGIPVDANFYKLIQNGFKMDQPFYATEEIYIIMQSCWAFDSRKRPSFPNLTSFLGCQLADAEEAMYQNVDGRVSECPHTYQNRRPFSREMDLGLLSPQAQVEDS
The experiment in a line: In vitro kinase activity experiment, FLT3. The class given is biochemical. The note with it: 40 min; inhibition rate of enzyme at 500 nM; measured by Eurofins; read-out: Kinase activity @ 500 nM (%) FLT3. On the procedure:
(§4) Buffer solution ([…], pH 7.0, 0.2 mm EDTA, 10 mM mncl2), kinase to be tested, substrate of kinase to be tested, 10 mM magnesium acetate and γ33P-ATP solution, and compounds with different concentrations were added to a reaction tube in turn, then MgATP was added to initiate the enzyme reaction process, and incubated at room temperature for 40 min. Then, the reaction was terminated with 5 μl of […], and 10 μl of the reaction solution was titrated onto the Filtermat A membrane, washed with 75 mM phosphate solution for three times, each time for 5 min., and then washed with methanol once. Finally, the Filtermat A membrane was dried and the scintillation count was carried out.

In the next assay the target is T2, JAK2 (Homo sapiens, UniProt O60674).
T2 construct: purchased Eurofins
T2 sequence (O60674 whole entry): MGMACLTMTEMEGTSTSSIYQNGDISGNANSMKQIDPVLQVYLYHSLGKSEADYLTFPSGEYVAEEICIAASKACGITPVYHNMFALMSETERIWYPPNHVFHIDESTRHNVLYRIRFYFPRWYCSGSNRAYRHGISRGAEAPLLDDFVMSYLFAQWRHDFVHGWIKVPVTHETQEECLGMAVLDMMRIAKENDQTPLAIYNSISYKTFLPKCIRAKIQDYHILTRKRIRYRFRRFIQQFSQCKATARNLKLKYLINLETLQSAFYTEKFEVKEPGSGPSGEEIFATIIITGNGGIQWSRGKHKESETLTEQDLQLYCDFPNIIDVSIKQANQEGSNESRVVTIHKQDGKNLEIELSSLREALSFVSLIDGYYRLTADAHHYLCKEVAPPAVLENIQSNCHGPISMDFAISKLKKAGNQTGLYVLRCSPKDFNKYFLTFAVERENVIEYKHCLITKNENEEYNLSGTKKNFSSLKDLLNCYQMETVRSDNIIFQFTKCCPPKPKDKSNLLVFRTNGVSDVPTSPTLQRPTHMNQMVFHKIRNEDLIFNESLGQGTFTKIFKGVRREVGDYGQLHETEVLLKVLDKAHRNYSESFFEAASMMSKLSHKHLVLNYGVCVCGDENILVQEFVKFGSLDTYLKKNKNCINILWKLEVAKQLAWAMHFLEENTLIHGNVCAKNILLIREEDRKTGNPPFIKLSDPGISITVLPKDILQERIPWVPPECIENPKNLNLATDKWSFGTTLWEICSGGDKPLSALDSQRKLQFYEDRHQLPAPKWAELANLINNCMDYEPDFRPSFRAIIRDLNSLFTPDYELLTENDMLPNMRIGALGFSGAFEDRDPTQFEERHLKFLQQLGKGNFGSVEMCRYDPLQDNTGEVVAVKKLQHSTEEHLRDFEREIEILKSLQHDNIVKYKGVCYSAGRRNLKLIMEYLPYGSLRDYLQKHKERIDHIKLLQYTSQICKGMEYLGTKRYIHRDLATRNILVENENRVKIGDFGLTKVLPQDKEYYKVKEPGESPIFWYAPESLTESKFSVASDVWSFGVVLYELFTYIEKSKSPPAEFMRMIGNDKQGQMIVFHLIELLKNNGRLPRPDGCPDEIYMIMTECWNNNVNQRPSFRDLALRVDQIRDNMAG
Description: In vitro kinase activity experiment, JAK2. The class given is biochemical. Conditions: inhibition rate of enzyme at 500 nM; measured by Eurofins. On the procedure:
as §4

In the case of `CCN1CCN(c2ccc(Nc3ncc(F)c(-c4cnn(C5CCCC5)c4)n3)cc2F)CC1` [CLJ-17, 5-fluoro-N-(3-fluoro-4-(4-ethylpiperazine-1-yl)phenyl)-4-(1-cyclopentyl-1H-pyrazole-4-yl) pyrimidine-2-amine], the IC50 was 10 to 100 nM in assay [1], 100 to 1000 nM in assay [2] and 100 to 1000 nM with SET-2 cells (JAK2 V617F). Besides, the inhibition at 0.5 µM on FLT3 came to 94%. Also, at JAK2, the “Kinase activity @ 500 nM (%) JAK2” value turned out to be 90%.
`CN(C)C1CCN(c2ccc(Nc3ncc(F)c(-c4cnn(C5CCCC5)c4)n3)cc2F)CC1` [CLJ-18, 5-fluoro-N-(3-fluoro-4-(4-dimethylaminopiperidine-1-yl)phenyl)-4-(1-cyclopentyl-1H-pyrazole-4-yl) pyrimidine-2-amine]: the IC50 was 10 to 100 nM in assay [1], 100 to 1000 nM in assay [2] and 100 to 1000 nM in the assay with SET-2 cells (JAK2 V617F). Also, the inhibition at 0.5 µM on FLT3 stood at 93%. On JAK2, the “Kinase activity @ 500 nM (%) JAK2” value turned out to be 93%.
As for `CC(C)n1cc(-c2nc(Nc3cccc(N4CCN(C)CC4)c3)ncc2F)cn1` [CLJ-19, 5-fluoro-N-(3-(4-methylpiperazine-1-yl)phenyl)-4-(1-isopropyl-1H-pyrazol-4-yl) pyrimidine-2-amine], the IC50 in assay [1] is 10 to 100 nM; in assay [2], 100 to 1000 nM; with SET-2 cells (JAK2 V617F), 100 to 1000 nM. Further, the inhibition at 0.5 µM on FLT3 was determined as 95%. Besides, at JAK2, the “Kinase activity @ 500 nM (%) JAK2” value is given as 92%.
On to `CCCCN1CCN(c2ccc(Nc3ncc(F)c(-c4cnn(C(C)C)c4)n3)nc2)CC1` [CLJ-20, 5-fluoro-N-(5-(4-butylpiperazine-1-yl)pyridine-2-yl)-4-(1-isopropyl-1H-pyrazole-4-yl) pyrimidine-2-amine], for which the IC50 (in assay [1]; in assay [2]; with SET-2 cells (JAK2 V617F)) was 100 to 1000 nM throughout. Further, the inhibition at 0.5 µM on FLT3 was 95%. Moreover, the “Kinase activity @ 500 nM (%) JAK2” value on JAK2 amounted to 97%.
With `CCN1CCN(Cc2ccc(Nc3ncc(F)c(-c4cnn(C(C)C)c4)n3)nc2)CC1` [CLJ-21, 5-fluoro-N-(5-((4-ethylpiperazine-1-yl)methyl)pyridine-2-yl)-4-(1-isopropyl-1H-pyrazole-4-yl) pyrimidine-2-amine], the IC50 (in assay [1]; in assay [2]; in the assay with SET-2 cells (JAK2 V617F)) was 100 to 1000 nM throughout. Besides, on FLT3, the inhibition at 0.5 µM came out at 75%. Also, on JAK2, the “Kinase activity @ 500 nM (%) JAK2” value is recorded as 89%.
On to `CC(C)n1cc(-c2nc(Nc3ccc(N4CCN(C)CC4)cc3)ncc2F)cn1` [CLJ-22, 5-fluoro-N-(4-(4-methylpiperazine-1-yl)phenyl)-4-(1-isopropyl-1H-pyrazol-4-yl) pyrimidine-2-amine], for which the IC50 (in assay [1]; in assay [2]; in the assay with SET-2 cells (JAK2 V617F)) was 100 to 1000 nM each time. Also, at FLT3, the inhibition at 0.5 µM came to 80%. Besides, the “Kinase activity @ 500 nM (%) JAK2” value on JAK2 came to 79%.
In the case of `CC(C)n1cc(-c2nc(Nc3ccc(N4CCN(C)CC4)cc3F)ncc2F)cn1` [CLJ-23, 5-fluoro-N-(2-fluoro-4-(4-methylpiperazine-1-yl)phenyl)-4-(1-isopropyl-1H-pyrazol-4-yl) pyrimidine-2-amine], the IC50 in assay [1] was 100 to 1000 nM; in assay [2] it was over 1000 nM; in the assay on SET-2 cells (JAK2 V617F), 100 to 1000 nM. For the same compound, the inhibition at 0.5 µM on FLT3 was determined as 40%. The “Kinase activity @ 500 nM (%) JAK2” value at JAK2 is recorded as 49%.
In the case of `CC(C)n1cc(-c2nc(Nc3ccc(N4CCN(C)CC4)c(F)c3)ncc2F)cn1` [CLJ-24, 5-fluoro-N-(3-fluoro-4-(4-methylpiperazine-1-yl)phenyl)-4-(1-isopropyl-1H-pyrazol-4-yl) pyrimidine-2-amine], the IC50 was 100 to 1000 nM in assay [1], over 1000 nM in assay [2] and over 1000 nM with SET-2 cells (JAK2 V617F). Besides, at FLT3, the inhibition at 0.5 µM is 32%. For the same compound, the “Kinase activity @ 500 nM (%) JAK2” value on JAK2 turned out to be 28%.
On to `CCN1CCN(c2ccc(Nc3ncc(F)c(-c4cnn(C(C)C)c4)n3)cc2F)CC1` [CLJ-26, 5-fluoro-N-(3-fluoro-4-(4-ethylpiperazine-1-yl)phenyl)-4-(1-isopropyl-1H-pyrazole-4-yl) pyrimidine-2-amine], for which the IC50 (in assay [1]; in assay [2]; in the assay with SET-2 cells (JAK2 V617F)) was over 1000 nM in each case. Moreover, the inhibition at 0.5 µM on FLT3 was 30%. At JAK2, the “Kinase activity @ 500 nM (%) JAK2” value stood at 19%.
Consider `CC(C)n1cc(-c2nc(Nc3ccc(N4CCCC4)c(F)c3)ncc2F)cn1` [CLJ-27, 5-fluoro-N-(3-fluoro-4-(pyrrolidine-1-yl)phenyl)-4-(1-isopropylpyrazol-4-yl) pyrimidine-2-amine], for which the IC50 in assay [1] was 100 to 1000 nM; in assay [2] it was over 1000 nM; with SET-2 cells (JAK2 V617F) it was over 1000 nM. The inhibition at 0.5 µM at FLT3 was determined as 24%. Also, the “Kinase activity @ 500 nM (%) JAK2” value at JAK2 is listed as 34%.
With `COc1cc(Nc2ncc(F)c(-c3cnn(C(C)C)c3)n2)ccc1N1CCN(C)CC1` [CLJ-28, 5-fluoro-N-(3-methoxy-4-(4-methylpiperazine-1-yl)phenyl)-4-(1-isopropyl-1H-pyrazol-4-yl) pyrimidine-2-amine], the IC50 (in assay [1]; in assay [2]; with SET-2 cells (JAK2 V617F)) was over 1000 nM each time. The inhibition at 0.5 µM at FLT3 turned out to be 21%. For the same compound, at JAK2, the “Kinase activity @ 500 nM (%) JAK2” value amounted to 25%.
Regarding `CCN1CCN(c2ccc(Nc3ncc(C)c(-c4cnn(C(C)C)c4)n3)cc2F)CC1` [CLJ-30], the figures for the IC50 (in assay [1]; in assay [2]; in the assay on SET-2 cells (JAK2 V617F)) were 10 to 100 nM, 100 to 1000 nM and 100 to 1000 nM, respectively. In addition, the inhibition at 0.5 µM on FLT3 worked out at 96%. Moreover, the “Kinase activity @ 500 nM (%) JAK2” value at JAK2 is given as 89%.
In the case of `CC(C)n1cc(-c2nc(Nc3ccc(N4CCN(C5CCN(C)CC5)CC4)cc3)ncc2F)cn1` [CLJ-31, 5-fluoro-N-(4-(4-(1-methylpiperidine-4-yl)piperazine-1-yl)phenyl)-4-(1-isopropyl-1H-pyrazole-4-yl) pyrimidine-2-amine], the IC50 (in assay [1]; in assay [2]; in the assay on SET-2 cells (JAK2 V617F)) was over 1000 nM each time. Also, the inhibition at 0.5 µM on FLT3 came out at 18%. Further, the “Kinase activity @ 500 nM (%) JAK2” value at JAK2 was 25%.
In the case of `CC(C)n1cc(-c2nc(Nc3ccc(N4CCN(C5CCN(C)CC5)CC4)c(F)c3)ncc2F)cn1` [CLJ-32, 5-fluoro-N-(3-fluoro-4-(4-(1-methylpiperidine-4-yl)piperazine-1-yl)phenyl)-4-(1-isopropyl-1H-pyrazole-4-yl) pyrimidine-2-amine], the IC50 in assay [1] was in the range of 10 to 100 nM; in assay [2], 100 to 1000 nM; in the assay on SET-2 cells (JAK2 V617F) it was 100 to 1000 nM. Moreover, the inhibition at 0.5 µM on FLT3 amounted to 95%. At JAK2, the “Kinase activity @ 500 nM (%) JAK2” value amounted to 90%.
Consider `CC(C)n1cc(-c2nc(Nc3ccc(N4CCC(N5CCCCC5)CC4)c(F)c3)ncc2F)cn1` [CLJ-33], for which the IC50 (in assay [1]; in assay [2]; in the assay with SET-2 cells (JAK2 V617F)) was over 1000 nM each time. In addition, at FLT3, the inhibition at 0.5 µM turned out to be 23%. The “Kinase activity @ 500 nM (%) JAK2” value at JAK2 is 34%.
